ChEMBL document CHEMBL1909046, “DrugMatrix in vitro pharmacology data”

How the values were obtained:
[1] = DRUGMATRIX: Phorbol Ester radioligand binding (ligand: [3H] PDBu); assay type: cell membranes, Mus musculus, ICR, Brain, Membrane; conditions: Not Active = under 50% inhibition at 10 µM
[2] = target: T1, Angiotensin-converting enzyme (Oryctolagus cuniculus, UniProt P12822); assay type: tissue-based, Lung;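 note: enzymatic inhibition of angiotensin-converting enzyme measured with FAPGG as the substrate; in other assays of this panel Not Active means under 50% inhibition at 10 µM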
T1 sequence (P12822 whole entry): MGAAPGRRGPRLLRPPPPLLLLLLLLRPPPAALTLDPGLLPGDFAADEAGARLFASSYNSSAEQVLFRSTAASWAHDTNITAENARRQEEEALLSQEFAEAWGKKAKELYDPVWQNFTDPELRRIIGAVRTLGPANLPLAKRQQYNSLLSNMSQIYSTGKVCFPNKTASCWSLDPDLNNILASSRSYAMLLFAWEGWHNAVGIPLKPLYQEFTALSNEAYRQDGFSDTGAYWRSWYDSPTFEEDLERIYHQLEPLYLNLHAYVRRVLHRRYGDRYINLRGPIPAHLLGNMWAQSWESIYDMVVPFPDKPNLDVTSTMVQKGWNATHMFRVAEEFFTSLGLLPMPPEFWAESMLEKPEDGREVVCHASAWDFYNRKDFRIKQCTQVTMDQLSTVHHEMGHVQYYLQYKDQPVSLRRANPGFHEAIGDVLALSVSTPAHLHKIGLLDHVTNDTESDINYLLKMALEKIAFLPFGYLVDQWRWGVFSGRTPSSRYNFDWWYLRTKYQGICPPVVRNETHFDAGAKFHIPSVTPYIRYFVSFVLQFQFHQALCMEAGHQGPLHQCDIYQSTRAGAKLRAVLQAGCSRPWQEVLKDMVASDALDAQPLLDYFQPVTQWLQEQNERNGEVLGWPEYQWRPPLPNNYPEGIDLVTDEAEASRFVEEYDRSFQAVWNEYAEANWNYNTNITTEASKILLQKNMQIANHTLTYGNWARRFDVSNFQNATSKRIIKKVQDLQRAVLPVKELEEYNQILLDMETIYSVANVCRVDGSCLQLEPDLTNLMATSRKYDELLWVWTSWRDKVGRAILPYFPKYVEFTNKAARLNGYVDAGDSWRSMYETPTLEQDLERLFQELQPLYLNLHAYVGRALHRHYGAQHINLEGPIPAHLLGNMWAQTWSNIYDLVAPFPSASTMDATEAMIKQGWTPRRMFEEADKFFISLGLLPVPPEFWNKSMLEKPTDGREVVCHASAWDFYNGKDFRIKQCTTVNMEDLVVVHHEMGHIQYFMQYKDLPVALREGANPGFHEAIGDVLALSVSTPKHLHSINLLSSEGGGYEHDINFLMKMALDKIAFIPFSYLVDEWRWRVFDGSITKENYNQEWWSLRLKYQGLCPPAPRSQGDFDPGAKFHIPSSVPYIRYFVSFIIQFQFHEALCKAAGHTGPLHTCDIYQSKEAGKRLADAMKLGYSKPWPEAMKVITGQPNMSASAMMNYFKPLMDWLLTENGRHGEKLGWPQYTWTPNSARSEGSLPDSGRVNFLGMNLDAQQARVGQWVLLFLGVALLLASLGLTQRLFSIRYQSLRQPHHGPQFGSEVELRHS

[3] = target: T2, Interstitial collagenase (Homo sapiens, UniProt P03956); assay type: tissue-based, Rheumatoid synovial fibroblasts;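 note: MMP-1 enzyme inhibition assay using a peptide substrate; in other assays of this panel Not Active means under 50% inhibition at 10 µM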
T2 sequence (P03956 whole entry): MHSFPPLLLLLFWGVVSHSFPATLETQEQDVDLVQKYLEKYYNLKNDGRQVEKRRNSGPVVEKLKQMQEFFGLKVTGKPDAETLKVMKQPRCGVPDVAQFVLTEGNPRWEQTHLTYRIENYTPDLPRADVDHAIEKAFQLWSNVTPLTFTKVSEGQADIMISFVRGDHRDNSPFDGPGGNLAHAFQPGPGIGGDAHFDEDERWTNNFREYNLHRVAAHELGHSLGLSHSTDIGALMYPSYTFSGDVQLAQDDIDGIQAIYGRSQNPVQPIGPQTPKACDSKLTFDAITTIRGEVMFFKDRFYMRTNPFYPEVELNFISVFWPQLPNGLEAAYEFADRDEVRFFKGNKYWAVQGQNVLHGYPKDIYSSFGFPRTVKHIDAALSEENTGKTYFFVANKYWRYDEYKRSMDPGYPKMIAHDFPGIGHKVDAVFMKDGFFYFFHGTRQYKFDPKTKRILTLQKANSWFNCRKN

[4] = DRUGMATRIX: Glutamate, NMDA, Phencyclidine radioligand binding (ligand: [3H] TCP); assay type: cell membranes, Rattus norvegicus, Wistar, Cerebral cortex, Membrane; conditions: Not Active = under 50% inhibition at 10 µM
[5] = target: Receptor tyrosine-protein kinase erbB-2 (Homo sapiens, UniProt P04626); experiment: biochemical; assay type: cell-based, Insect cells; conditions: insect cells;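 note: inhibition of HER2 kinase enzyme activity, measured with Poly(Glu:Tyr) as the phosphorylation substrate; in other assays of this panel Not Active means under 50% inhibition at 10 µM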
Sequence of Receptor tyrosine-protein kinase erbB-2 (P04626 whole entry): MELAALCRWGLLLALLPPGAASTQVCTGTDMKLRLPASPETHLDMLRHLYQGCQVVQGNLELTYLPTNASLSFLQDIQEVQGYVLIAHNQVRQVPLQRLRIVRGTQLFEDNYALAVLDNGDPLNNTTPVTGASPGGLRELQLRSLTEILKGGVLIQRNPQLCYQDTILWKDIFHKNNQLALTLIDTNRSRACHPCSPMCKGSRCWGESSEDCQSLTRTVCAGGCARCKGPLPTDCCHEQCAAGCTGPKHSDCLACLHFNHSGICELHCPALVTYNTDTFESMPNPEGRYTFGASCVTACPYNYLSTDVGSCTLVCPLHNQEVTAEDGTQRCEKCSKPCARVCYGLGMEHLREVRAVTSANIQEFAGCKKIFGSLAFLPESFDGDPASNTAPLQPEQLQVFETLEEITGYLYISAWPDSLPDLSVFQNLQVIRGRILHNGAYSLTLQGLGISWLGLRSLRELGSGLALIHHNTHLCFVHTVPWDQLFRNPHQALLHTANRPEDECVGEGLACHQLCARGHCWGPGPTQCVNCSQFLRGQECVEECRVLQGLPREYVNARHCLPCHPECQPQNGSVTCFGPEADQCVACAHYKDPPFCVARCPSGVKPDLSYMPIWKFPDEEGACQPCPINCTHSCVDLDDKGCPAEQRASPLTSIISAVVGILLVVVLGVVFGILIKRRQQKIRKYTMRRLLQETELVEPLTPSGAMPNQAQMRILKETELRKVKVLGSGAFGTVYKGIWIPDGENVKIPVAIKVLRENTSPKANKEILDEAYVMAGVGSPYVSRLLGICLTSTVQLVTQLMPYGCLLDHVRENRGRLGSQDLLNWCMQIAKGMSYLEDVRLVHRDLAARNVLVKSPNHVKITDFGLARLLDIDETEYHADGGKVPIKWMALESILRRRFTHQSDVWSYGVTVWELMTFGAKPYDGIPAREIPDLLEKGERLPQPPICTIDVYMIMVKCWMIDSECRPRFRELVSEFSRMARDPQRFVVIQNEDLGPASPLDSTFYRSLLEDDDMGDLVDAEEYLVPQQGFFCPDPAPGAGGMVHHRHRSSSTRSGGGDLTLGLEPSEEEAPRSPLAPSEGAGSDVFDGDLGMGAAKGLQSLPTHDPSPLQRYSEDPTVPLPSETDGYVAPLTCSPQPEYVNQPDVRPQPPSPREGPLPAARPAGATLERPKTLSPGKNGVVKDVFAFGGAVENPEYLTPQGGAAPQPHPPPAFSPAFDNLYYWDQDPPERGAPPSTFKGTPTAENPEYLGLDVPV

[6] = target: Beta-1 adrenergic receptor (Homo sapiens, UniProt P08588); experiment: DRUGMATRIX: Adrenergic beta1 radioligand binding (ligand: [125I] Cyanopindolol); assay type: cell membranes, CHO-K1, Membrane; conditions: cho-k1; Not Active = under 50% inhibition at 10 µM
Sequence of Beta-1 adrenergic receptor (P08588 whole entry): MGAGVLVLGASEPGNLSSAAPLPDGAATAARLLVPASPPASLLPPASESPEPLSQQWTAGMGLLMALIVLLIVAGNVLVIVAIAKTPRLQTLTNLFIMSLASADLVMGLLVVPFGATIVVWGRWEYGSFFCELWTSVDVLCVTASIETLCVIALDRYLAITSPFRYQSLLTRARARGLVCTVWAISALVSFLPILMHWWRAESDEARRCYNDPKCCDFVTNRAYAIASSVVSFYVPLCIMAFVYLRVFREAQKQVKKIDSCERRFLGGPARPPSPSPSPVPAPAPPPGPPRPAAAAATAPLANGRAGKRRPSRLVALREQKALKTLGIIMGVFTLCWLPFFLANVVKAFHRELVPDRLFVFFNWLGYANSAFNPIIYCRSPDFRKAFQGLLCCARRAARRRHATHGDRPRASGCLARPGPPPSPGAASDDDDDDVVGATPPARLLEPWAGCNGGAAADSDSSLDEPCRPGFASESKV

[7] = target: T3, Neutrophil elastase (Homo sapiens, UniProt P08246); assay type: tissue-based;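 note: inhibition of neutrophil elastase enzyme activity, measured with a p-nitroanilide-linked peptide substrate; in other assays of this panel Not Active means under 50% inhibition at 10 µM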
T3 sequence (P08246 whole entry): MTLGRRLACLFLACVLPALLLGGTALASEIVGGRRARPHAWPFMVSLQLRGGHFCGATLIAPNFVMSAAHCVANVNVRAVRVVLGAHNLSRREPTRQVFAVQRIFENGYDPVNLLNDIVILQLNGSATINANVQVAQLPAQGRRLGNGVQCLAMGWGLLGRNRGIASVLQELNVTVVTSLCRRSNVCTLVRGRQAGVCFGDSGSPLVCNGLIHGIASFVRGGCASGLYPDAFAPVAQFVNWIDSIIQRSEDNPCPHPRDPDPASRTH

[8] = target: Glycine receptor (Rattus norvegicus, UniProt P22771+P24524+P07727+P20781); assay type: cell membranes, Wistar, Spinal cord, Membrane; note: in other assays of this panel Not Active means under 50% inhibition at 10 µM

Nn1nnc2ccccc21
Not Active: IC50 [1] | Ki [1] | IC50 [2] | IC50 [3] | IC50 [4] | Ki [4] | IC50 [5] | IC50 [6] | IC50 [7] | IC50 [8]

CC[C@]1(O)CC[C@H]2[C@@H]3CCC4=CCCC[C@@H]4[C@H]3CC[C@@]21C
Not Active: IC50 [1] | Ki [1] | IC50 [2] | IC50 [3] | IC50 [4] | Ki [4] | IC50 [5] | IC50 [6] | IC50 [7] | IC50 [8]

N[C@@H](Cc1ccc(F)cc1)C(=O)O
Not Active: IC50 [1] | Ki [1] | IC50 [2] | IC50 [3] | IC50 [4] | Ki [4] | IC50 [5] | IC50 [6] | IC50 [7] | IC50 [8]

CCOC(=O)[C@H](CCc1ccccc1)N[C@@H](C)C(=O)N1Cc2ccccc2C[C@H]1C(=O)O
Not Active: IC50 [1] | Ki [1] | IC50 [3] | IC50 [4] | Ki [4] | IC50 [5] | IC50 [6] | IC50 [7] | IC50 [8]

O=C(c1ccccc1Cl)N1CCC(Cc2ccccc2)CC1
Not Active: IC50 [1] | Ki [1] | IC50 [2] | IC50 [3] | IC50 [4] | Ki [4] | IC50 [5] | IC50 [6] | IC50 [7] | IC50 [8]

CCOC(=O)[C@H](CCc1ccccc1)N[C@@H](C)C(=O)N1CCC[C@H]1C(=O)O
Not Active: IC50 [1] | Ki [1] | IC50 [3] | IC50 [4] | Ki [4] | IC50 [5] | IC50 [6] | IC50 [7] | IC50 [8]

Clc1cc2c(cc1Cl)Oc1cc(Cl)c(Cl)cc1O2 [2,3,7,8-TETRACHLORODIBENZO-P-DIOXIN]
Not Active: IC50 [1] | Ki [1] | IC50 [2] | IC50 [3] | IC50 [4] | Ki [4] | IC50 [5] | IC50 [6] | IC50 [7] | IC50 [8]

C=C1/C(=C\C=C2/CCC[C@]3(C)[C@@H]([C@H](C)CCCC(C)C)CC[C@@H]23)C[C@@H](O)C[C@@H]1O [ALFACALCIDOL]
Not Active: IC50 [1] | Ki [1] | IC50 [2] | IC50 [3] | IC50 [4] | Ki [4] | IC50 [5] | IC50 [6] | IC50 [7] | IC50 [8]

CCCCCC[C@H]1C(=O)O[C@H](C)[C@H](NC(=O)c2cccc(NC=O)c2O)C(=O)O[C@@H](C)[C@@H]1OC(=O)CC(C)C [ANTIMYCIN A]
Not Active: IC50 [1] | Ki [1] | IC50 [2] | IC50 [3] | IC50 [4] | Ki [4] | IC50 [5] | IC50 [6] | IC50 [7] | IC50 [8]

C[C@@H]1CC[C@H]2[C@@H](C)C(=O)O[C@@H]3O[C@@]4(C)CC[C@@H]1[C@]32OO4 [ARTEMISININ]
Not Active: IC50 [1] | Ki [1] | IC50 [2] | IC50 [3] | IC50 [4] | Ki [4] | IC50 [5] | IC50 [6] | IC50 [7] | IC50 [8]

CO[C@H]1[C@@H](O)[C@H](N)[C@@H](O[C@H]2O[C@H]([C@H](C)N)CC[C@H]2N)[C@H](O)[C@@H]1N(C)C(=O)CN [ASTROMICIN]
Not Active: IC50 [1] | Ki [1] | IC50 [2] | IC50 [3] | IC50 [4] | Ki [4] | IC50 [5] | IC50 [6] | IC50 [7] | IC50 [8]

[N-]=[N+]=CC(=O)OC[C@H](N)C(=O)O [AZASERINE]
Not Active: IC50 [1] | Ki [1] | IC50 [2] | IC50 [3] | IC50 [4] | Ki [4] | IC50 [5] | IC50 [6] | IC50 [7] | IC50 [8]

CC[C@H]1OC(=O)[C@H](C)[C@@H](O[C@H]2C[C@@](C)(OC)[C@@H](O)[C@H](C)O2)[C@H](C)[C@@H](O[C@@H]2O[C@H](C)C[C@H](N(C)C)[C@H]2O)[C@](C)(O)C[C@@H](C)CN(C)[C@H](C)[C@@H](O)[C@]1(C)O [AZITHROMYCIN]
Not Active: IC50 [1] | Ki [1] | IC50 [2] | IC50 [3] | IC50 [4] | Ki [4] | IC50 [5] | IC50 [6] | IC50 [7] | IC50 [8]

CC(C)(C)c1ccc(S(=O)(=O)/C=C/C#N)cc1 [BAY-11-7085]
Not Active: IC50 [1] | Ki [1] | IC50 [2] | IC50 [3] | IC50 [4] | Ki [4] | IC50 [5] | IC50 [6] | IC50 [7] | IC50 [8]

CCc1oc2ccccc2c1C(=O)c1cc(Br)c(O)c(Br)c1 [BENZBROMARONE]
Not Active: IC50 [1] | Ki [1] | IC50 [2] | IC50 [3] | IC50 [4] | Ki [4] | IC50 [5] | IC50 [6] | IC50 [7] | IC50 [8]

O=c1cc(-c2ccccc2)oc2ccc3ccccc3c12 [BETA-NAPHTHOFLAVONE]
Not Active: IC50 [1] | Ki [1] | IC50 [2] | IC50 [3] | IC50 [4] | Ki [4] | IC50 [5] | IC50 [6] | IC50 [7] | IC50 [8]

NC[C@H]1O[C@H](O[C@H]2[C@H](O)[C@@H](O[C@H]3O[C@H](CO)[C@@H](O)[C@H](N)[C@H]3O)[C@H](N)C[C@@H]2N)[C@H](O)[C@@H](O)[C@@H]1O [KANAMYCIN]
Not Active: IC50 [1] | Ki [1] | IC50 [2] | IC50 [3] | IC50 [4] | Ki [4] | IC50 [5] | IC50 [7] | IC50 [8]
